According to ChEMBL document CHEMBL5260810, “Inhibition of bromodomain-containing protein 9 for the prevention of epigenetically-defined drug resistance” (Bioorg Med Chem Lett, 2017):
Active and inactive are the calls of the source. The rule behind the calls is not given here.

How the values were obtained:
PC-9 [1] = test: Cytotoxicity against human PC-9 cells assessed as decrease in cell number at 1 uM supplemented with fresh medium containing compound every 3 days for 9 days by Beckman Coulter counting method; type: functional; parameters: scale not given: the % may be the effect or the level left; details: time 3 day
[2] = target: T1, Bromodomain-containing protein 4 (Homo sapiens, UniProt O60885); test: Displacement of biotinylated small-molecule ligand from recombinant His-tagged BRD4 bromodomain 1 (unknown origin) measured after 10 mins by TR-FRET assay
[3] = target: T1, Bromodomain-containing protein 4; test: Displacement of biotinylated small-molecule ligand from recombinant His-tagged BRD4 bromodomain 2 (unknown origin) measured after 10 mins by TR-FRET assay
[4] = target: Chromatin remodeling regulator CECR2 (Homo sapiens, UniProt Q9BXF3); test: Displacement of biotinylated small-molecule ligand from recombinant His-tagged CECR2 (unknown origin) measured after 10 mins by TR-FRET assay
Chromatin remodeling regulator CECR2, sequence (Q9BXF3 whole entry): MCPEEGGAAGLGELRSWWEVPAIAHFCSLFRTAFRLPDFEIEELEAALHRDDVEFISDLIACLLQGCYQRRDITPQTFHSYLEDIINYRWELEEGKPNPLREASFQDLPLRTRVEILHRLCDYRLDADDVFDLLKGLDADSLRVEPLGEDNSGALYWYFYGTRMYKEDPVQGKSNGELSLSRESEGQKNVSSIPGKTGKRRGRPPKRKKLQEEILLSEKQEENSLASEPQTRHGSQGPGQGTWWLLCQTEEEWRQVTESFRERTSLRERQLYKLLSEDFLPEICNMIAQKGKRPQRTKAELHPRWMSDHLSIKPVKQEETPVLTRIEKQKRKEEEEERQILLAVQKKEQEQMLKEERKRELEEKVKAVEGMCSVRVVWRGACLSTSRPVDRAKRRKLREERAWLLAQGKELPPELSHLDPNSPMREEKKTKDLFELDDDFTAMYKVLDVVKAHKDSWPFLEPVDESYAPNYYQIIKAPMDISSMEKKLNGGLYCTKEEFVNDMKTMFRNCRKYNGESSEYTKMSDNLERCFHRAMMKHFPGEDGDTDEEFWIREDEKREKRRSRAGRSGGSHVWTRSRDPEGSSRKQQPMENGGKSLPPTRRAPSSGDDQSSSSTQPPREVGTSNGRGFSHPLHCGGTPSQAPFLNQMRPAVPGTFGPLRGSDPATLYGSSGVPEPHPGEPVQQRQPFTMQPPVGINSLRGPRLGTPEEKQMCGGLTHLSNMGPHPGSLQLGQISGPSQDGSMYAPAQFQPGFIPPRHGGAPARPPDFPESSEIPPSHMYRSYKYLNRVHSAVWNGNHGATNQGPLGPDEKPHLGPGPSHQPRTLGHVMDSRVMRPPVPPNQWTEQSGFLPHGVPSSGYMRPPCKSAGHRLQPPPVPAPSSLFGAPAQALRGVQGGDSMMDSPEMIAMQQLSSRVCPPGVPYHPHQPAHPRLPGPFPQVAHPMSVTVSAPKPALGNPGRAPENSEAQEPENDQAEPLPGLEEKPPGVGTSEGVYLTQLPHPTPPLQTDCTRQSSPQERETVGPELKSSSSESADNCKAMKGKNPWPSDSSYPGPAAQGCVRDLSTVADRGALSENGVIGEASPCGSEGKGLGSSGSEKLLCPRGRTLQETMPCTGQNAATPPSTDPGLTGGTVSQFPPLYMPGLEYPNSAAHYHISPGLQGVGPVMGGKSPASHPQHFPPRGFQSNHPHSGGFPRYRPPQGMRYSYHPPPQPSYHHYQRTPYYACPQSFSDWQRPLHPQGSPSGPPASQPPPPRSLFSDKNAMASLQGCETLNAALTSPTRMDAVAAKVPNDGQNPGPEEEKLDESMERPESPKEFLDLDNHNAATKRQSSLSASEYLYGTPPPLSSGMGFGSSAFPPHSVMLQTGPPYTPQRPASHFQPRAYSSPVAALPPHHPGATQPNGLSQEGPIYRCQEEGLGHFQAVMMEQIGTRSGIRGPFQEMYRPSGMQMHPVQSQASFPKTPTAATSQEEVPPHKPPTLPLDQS

[5] = target: Transcription initiation factor TFIID subunit 1 (Homo sapiens, UniProt P21675); test: Displacement of biotinylated small-molecule ligand from recombinant His-tagged TAF1 bromodomain 2 (unknown origin) measured after 10 mins by TR-FRET assay
Transcription initiation factor TFIID subunit 1, sequence (P21675 whole entry): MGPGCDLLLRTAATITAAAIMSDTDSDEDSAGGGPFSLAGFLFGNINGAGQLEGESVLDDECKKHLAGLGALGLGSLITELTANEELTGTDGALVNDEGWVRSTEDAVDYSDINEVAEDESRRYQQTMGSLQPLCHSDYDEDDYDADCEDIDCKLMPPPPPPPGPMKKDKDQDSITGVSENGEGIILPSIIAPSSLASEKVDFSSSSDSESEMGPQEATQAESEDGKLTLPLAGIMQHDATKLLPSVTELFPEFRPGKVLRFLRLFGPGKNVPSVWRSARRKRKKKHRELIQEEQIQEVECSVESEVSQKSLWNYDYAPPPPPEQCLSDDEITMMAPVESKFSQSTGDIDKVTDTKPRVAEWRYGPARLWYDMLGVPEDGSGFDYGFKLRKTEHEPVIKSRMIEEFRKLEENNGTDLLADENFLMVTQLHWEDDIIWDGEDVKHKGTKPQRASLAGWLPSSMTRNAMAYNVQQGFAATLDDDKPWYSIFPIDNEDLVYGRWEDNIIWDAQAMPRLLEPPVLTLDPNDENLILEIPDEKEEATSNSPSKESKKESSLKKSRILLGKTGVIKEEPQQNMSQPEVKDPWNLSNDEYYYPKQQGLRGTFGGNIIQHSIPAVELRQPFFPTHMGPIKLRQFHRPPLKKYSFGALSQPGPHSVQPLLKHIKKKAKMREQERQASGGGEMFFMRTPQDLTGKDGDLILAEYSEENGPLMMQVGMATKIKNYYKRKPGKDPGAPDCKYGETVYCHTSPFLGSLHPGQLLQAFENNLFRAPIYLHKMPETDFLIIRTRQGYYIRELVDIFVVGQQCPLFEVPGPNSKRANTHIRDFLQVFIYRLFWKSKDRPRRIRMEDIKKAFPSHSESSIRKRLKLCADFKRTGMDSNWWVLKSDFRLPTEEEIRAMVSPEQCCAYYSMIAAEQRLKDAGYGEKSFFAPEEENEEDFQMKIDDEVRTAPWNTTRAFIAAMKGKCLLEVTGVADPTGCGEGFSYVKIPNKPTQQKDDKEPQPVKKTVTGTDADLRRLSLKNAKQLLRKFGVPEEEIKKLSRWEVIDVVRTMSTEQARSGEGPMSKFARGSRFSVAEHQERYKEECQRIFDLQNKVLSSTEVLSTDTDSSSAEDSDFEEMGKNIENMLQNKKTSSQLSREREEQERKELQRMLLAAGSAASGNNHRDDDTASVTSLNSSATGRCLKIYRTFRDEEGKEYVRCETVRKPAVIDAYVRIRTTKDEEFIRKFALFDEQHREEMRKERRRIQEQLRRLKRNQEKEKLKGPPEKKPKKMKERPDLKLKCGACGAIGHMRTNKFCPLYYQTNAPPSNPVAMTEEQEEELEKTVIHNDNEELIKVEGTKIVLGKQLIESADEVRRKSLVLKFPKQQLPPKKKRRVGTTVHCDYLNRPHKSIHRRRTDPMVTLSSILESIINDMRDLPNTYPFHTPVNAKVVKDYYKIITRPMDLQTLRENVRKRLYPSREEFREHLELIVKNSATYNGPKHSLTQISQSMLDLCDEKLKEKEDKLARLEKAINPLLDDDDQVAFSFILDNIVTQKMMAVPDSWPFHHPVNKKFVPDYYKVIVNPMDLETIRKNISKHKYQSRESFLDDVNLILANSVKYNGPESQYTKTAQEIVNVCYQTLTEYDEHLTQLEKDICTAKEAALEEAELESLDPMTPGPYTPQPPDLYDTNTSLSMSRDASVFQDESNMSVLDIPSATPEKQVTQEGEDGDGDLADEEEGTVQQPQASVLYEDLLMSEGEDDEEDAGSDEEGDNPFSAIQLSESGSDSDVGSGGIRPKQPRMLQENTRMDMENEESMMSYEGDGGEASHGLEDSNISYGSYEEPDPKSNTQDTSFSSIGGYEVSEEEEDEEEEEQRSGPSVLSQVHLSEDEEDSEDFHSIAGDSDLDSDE

PC-9 [6] = test: Cytotoxicity against human PC-9 cells assessed as decrease in cell number at 50 nM supplemented with fresh medium containing compound every 3 days for 9 days by Beckman Coulter counting method; type: functional, cell-based; details: time 3.0 day
PC-9 [7] = test: Cytotoxicity against human PC-9 cells assessed as decrease in drug tolerant population at 50 nM supplemented with fresh medium containing compound every 3 days for 9 days in presence of erlotinib by Beckman Coulter counting method; type: functional, cell-based; details: time 9.0 day

Compound | Activity (PC-9 [1]) | IC50 [2] | IC50 [3] | IC50 [4] | IC50 [5] | Activity (PC-9 [6]) | Activity (PC-9 [7])
C#Cc1cccc(Nc2ncnc3cc(OCCOC)c(OCCOC)cc23)c1 [ERLOTINIB] | >98% |  |  |  |  |  | 
C/C=C/Cn1cc(-c2ccc(C(C)(C)O)cc2)c2cc[nH]c2c1=O |  | 3.3 µM | 6.1 µM | 4.7 µM | 5.5 µM |  | 
C/C=C/Cn1cc(-c2ccc(C(=O)N3CCOCC3)c(Cl)c2)c2cc(C)[nH]c2c1=O |  | 3.5 µM | 12.3 µM | 0.46 µM | 1.4 µM |  | 
CC(/C=C/C(=O)NO)=C\[C@@H](C)C(=O)c1ccc(N(C)C)cc1 |  |  |  |  |  | inactive | Active
C/C=C/Cn1cc(-c2ccc(C(=O)N3CCOCC3)cc2)c2cc(C)[nH]c2c1=O |  | 1.6 µM | 6.7 µM | 0.81 µM | 0.75 µM |  | 
C/C=C/Cn1cc(-c2ccc(C(=O)N3CCOCC3)c(OC)c2)c2cc(C)[nH]c2c1=O |  | 3.3 µM | 17.4 µM | 1 µM | 1.7 µM |  | 
C/C=C/Cn1cc(-c2ccc(C(=O)N3CCOCC3)c(C)c2)c2cc(C)[nH]c2c1=O |  | 6 µM | 14.4 µM | 1 µM | 2.8 µM |  | 
C/C=C/Cn1cc(-c2ccc(C(=O)N3CCOCC3)c(C#N)c2)c2cc(C)[nH]c2c1=O |  | 4.2 µM | 13.5 µM | 0.37 µM | 0.52 µM |  | 
